Assay results from patent publication US12018023B2 (NERVIANO MEDICAL SCIENCES S.R.L., priority 2018, dated 2024).

Experiments:
Format in all cases: biochemical
[1] = target: T1, IDH1^R132H homodimer enzyme (Homo sapiens, UniProt O75874, R132H); experiment: NADPH depletion assay, IDH1 R132H
T1 construct: purchased not specified
In short: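 IDH1 R132H enzyme (8 nM as diluted) in Tris-HCl pH 7.6 with 10 mM MgCl2, 0.001% Triton X-100 and 4 mM β-mercaptoethanol is preincubated 15 min at RT with compound. Substrate mix (12 uM NADPH, 3.4 mM α-ketoglutarate) is added for 60 min; remaining NAD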

IDH1^R132C = target: T2, IDH1^R132C (Homo sapiens, UniProt O75874, R132C); experiment: NADPH depletion assay, IDH1 R132C
T2 construct: purchased not specified
In short: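 Fluorescence readout (Ex544/Em590) of NADPH left after diaphorase/resazurin addition. Alpha-ketoglutarate 0.14 mM final, enzyme 2 nM final; compound preincubation 15 min, then 60 min reaction, both at room temperature, pH 7.6 Tris buffer.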

IDH2^R172K = target: T3, IDH2^R172K (Homo sapiens, UniProt P48735, R172K); experiment: NADPH depletion assay, IDH2 R172K
T3 construct: purchased not specified
T3 sequence (P48735 40-452 R172K): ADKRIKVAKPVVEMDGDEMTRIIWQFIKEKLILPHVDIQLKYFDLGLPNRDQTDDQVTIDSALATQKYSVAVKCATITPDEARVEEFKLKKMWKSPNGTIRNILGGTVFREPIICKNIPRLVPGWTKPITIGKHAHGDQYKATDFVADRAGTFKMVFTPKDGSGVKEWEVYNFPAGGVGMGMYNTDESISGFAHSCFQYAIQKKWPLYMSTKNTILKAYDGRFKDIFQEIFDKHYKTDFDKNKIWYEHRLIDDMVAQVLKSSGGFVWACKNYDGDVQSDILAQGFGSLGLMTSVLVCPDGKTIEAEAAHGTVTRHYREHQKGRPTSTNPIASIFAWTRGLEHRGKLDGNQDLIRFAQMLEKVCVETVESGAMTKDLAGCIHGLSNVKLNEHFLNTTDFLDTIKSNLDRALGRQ
Experimental: IDH mutated enzyme activity converting alpha-ketoglutarate to 2-hydroxyglutaric acid is measured using a NADPH depletion assay. In the assay the remaining cofactor is measured at the end of the reaction with the addition of a catalytic excess of diaphorase and resazurin, to generate a fluorescent signal in proportion to the amount of NADPH remaining. IDH1 WT enzyme as well as mutated isoforms IDH1^R132H, IDH1^R132C, and IDH^2R172K enzymes are commercially available proteins (see e.g. Sino Biological, Abcam, Active Motif or Creative BioMart).
IDH1^R132H homodimer enzyme are diluted to 8 nM, in 10 μL of Assay Buffer (150 mM NaCl, 50 mM Tris-HCl pH 7.6, 10 mM MgCl2, 0.001% Triton X-100, 4 mM β-mercaptoethanol); 0.2 uL of test compound, previously serially diluted 1 to 3, >10 experimental points from 1 mM in DMSO, is added and the mixture is incubated for 15 minutes at room temperature. The reaction is started with the addition of 10 μL of Substrate Mix (12 uM NADPH, 3.4 mM alpha-ketoglutarate in Assay Buffer) and the mixture is incubated for 60 minutes at room temperature. The reaction is terminated with the addition of 5 μl of Detection Buffer (100 μg/mL diaphorase, 30 μM resazurin, in IX Assay Buffer), and is incubated for 15 minute before reading on a ViewLux as platereader at Ex544/Em590.
Compounds are assayed for their activity against IDH2^R172K following the same assay as above with the following modifications: IDH2^R172K and alpha-ketoglutarate final concentrations in the Assay Buffer is 16 nM and 0.55 mM, respectively.

T1 sequence (O75874 whole entry R132H): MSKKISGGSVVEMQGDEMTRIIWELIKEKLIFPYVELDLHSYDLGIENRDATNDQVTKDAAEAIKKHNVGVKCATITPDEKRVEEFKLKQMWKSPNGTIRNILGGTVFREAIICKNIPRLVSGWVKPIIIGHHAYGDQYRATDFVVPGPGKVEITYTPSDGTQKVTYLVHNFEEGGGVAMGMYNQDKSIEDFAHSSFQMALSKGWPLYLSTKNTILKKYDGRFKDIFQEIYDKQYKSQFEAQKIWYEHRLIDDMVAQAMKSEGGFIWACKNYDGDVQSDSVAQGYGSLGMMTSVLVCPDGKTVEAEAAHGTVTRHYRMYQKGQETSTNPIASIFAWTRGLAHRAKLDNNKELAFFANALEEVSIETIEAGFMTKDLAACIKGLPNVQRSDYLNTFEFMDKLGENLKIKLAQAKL
T2 sequence (O75874 whole entry R132C): as the sequence (O75874 whole entry R132H) above, with H132C counted along it

Compound	IC50 [1] [nM]	IC50 (IDH1^R132C) [nM]	IC50 (IDH2^R172K) [nM]
CC(Nc1ncc2ccc(=O)n(Cc3ccccc3)c2n1)c1ccc(CN2CCC(F)(F)CC2)cc1 (stereo not shown) [cpd 96, 8-benzyl-2-[(1-{4-[(4,4-difluoropiperidin-1-yl)methyl]phenyl}ethyl)amino]pyrido[2,3-d]pyrimidin-7(8H)-one]	801	420	5020
C=CC(=O)N1CCN(Cc2ccc([C@H](C)Nc3ncc4ccc(=O)n([C@@H](C)CF)c4n3)cc2)CC1 [cpd 198, 2-{[(1S)-1-{4-[(4-acryloylpiperazin-1-yl)methyl]phenyl}ethyl]amino}-8-[(2S)-1-fluoropropan-2-yl]pyrido[2,3-d]pyrimidin-7(8H)-one]	132	401	248
C=CC(=O)N1CC=C(c2ccc([C@H](C)Nc3ncc4ccc(=O)n([C@@H](C)C(C)C)c4n3)nc2)CC1 [cpd 194, 2-{[(1S)-1-(1′-acryloyl-1′,2′,3′,6′-tetrahydro-3,4′-bipyridin-6-yl)ethyl]amino}-8-[(2S)-3-methylbutan-2-yl]pyrido [2,3-d]pyrimidin-7(8H)-one]	338	200	1790
C[C@H](Nc1ncc2ccc(=O)n(CC(C)(C)C)c2n1)c1ccc(Br)cc1 [cpd 34, 2-{[(1S)-1-(4-bromophenyl)ethyl]amino}-8-(2,2-dimethylpropyl)pyrido[2,3-d]pyrimidin-7(8H)-one]	219	135	3350
C[C@H](Nc1ncc2ccc(=O)n(CC(C)(C)C)c2n1)c1ccc(CN2CCC(F)(F)C2)cc1 [cpd 148, 2-{[(1S)-1-{4-[(3,3-difluoropyrrolidin-1-yl)methyl]phenyl}ethyl]amino}-8-(2,2-dimethylpropyl)pyrido[2,3-d]pyrimidin-7(8H)-one]	187	109	5830
COc1cccc(Cn2c(=O)ccc3cnc(N[C@@H](C)c4ccc(Cl)cc4)nc32)c1 [cpd 30, 2-{[(1S)-1-(4-chlorophenyl)ethyl]amino}-8-(3-methoxybenzyl)pyrido[2,3-d]pyrimidin-7(8H)-one]	1340	406	2520
C[C@H](Nc1ncc2ccc(=O)n(CC(C)(C)C)c2n1)c1ccc(OC2CCN(C(=O)OC(C)(C)C)CC2)cc1 [cpd 154, 4-(4-{(S)-1-[8-(2,2-Dimethyl-propyl)-7-oxo-7,8-dihydro-pyrido[2,3-d]pyrimidin-2-ylamino]-ethyl}-phenoxy)-piperidine-1-carboxylic acid tert-butyl ester]	199	79	5380
CC(C)Cn1c(=O)ccc2cnc(N[C@@H](C)c3ccc(CN4CCC(F)(F)CC4)cc3)nc21 [cpd 95, 2-{[(1S)-1-{4-[(4,4-difluoropiperidin-1-yl)methyl]phenyl}ethyl]amino}-8-(2-methylpropyl)pyrido[2,3-d]pyrimidin-7(8H)-one]	425	162	5160
CC(C)[C@H](C)n1c(=O)ccc2cnc(N[C@@H](C)c3ccc(N4CCN(C(=O)OCc5ccccc5)CC4)c(F)c3)nc21 [cpd 178, Benzyl 4-{2-fluoro-4-[(1S)-1-({8-[(2S)-3-methylbutan-2-yl]-7-oxo-7,8-dihydropyrido[2,3-d]pyrimidin-2-yl}amino)ethyl]phenyl}piperazine-1-carboxylate]	46	30	5020
C[C@H](Nc1ncc2ccc(=O)n(Cc3ccccc3F)c2n1)c1ccc(Cl)cc1 [cpd 22, 2-{[(1S)-1-(4-chlorophenyl)ethyl]amino}-8-(2-fluorobenzyl)pyrido[2,3-d]pyrimidin-7(8H)-one]	451	195	2990
COC(=O)c1ccc([C@H](C)Nc2ncc3ccc(=O)n(Cc4ccc(F)cc4)c3n2)cc1 [cpd 6, methyl 4-[(1S)-1-{[8-(4-fluorobenzyl)-7-oxo-pyrido[2,3-d]pyrimidin-2-yl]amino}ethyl]benzoate]	3340	1340	6650
CC(C)[C@H](C)n1c(=O)ccc2cnc(N[C@@H](C)c3ccc(N4CCNCC4)cc3)nc21 [cpd 176, 8-[(2S)-3-methylbutan-2-yl]-2-({(1S)-1-[4-(piperazin-1-yl)phenyl]ethyl}amino)pyrido[2,3-d]pyrimidin-7(8H)-one]	3510	1910	
C[C@H](Nc1ncc2ccc(=O)n(CC3(C)COC3)c2n1)c1ccc2ccccc2c1 [cpd 45, 8-[(3-methyloxetan-3-yl)methyl]-2-{[(1S)-1-(naphthalen-2-yl)ethyl]amino}pyrido[2,3-d]pyrimidin-7(8H)-one]	554	206	

Further molecules by falling IC50 [1], results first:

IC50 [1] [nM]	IC50 (IDH1^R132C) [nM]	IC50 (IDH2^R172K) [nM]	Compound
1480	805	4850	COC(=O)C(C)(C)Cn1c(=O)ccc2cnc(N[C@@H](C)c3ccc4ccccc4c3)nc21 [cpd 37, methyl 2,2-dimethyl-3-[2-{[(1S)-1-(naphthalen-2-yl)ethyl]amino}-7-oxopyrido[2,3-d]pyrimidin-8(7H)-yl]propanoate]
1480	590	2510	C[C@H](Nc1ncc2ccc(=O)n(Cc3ccc(F)cc3)c2n1)c1ccc(Cl)cc1 [cpd 28, 2-{[(1S)-1-(4-chlorophenyl)ethyl]amino}-8-(4-fluorobenzyl)pyrido[2,3-d]pyrimidin-7(8H)-one]
1400	1530	717	C=CC(=O)N1CCN(Cc2ccc([C@H](C)Nc3ncc4ccc(=O)n([C@@H](C)CO)c4n3)cc2)CC1 [cpd 199, 2-{[(1S)-1-{4-[(4-acryloylpiperazin-1-yl)methyl]phenyl}ethyl]amino}-8-[(2S)-1-hydroxypropan-2-yl]pyrido[2,3-d]pyrimidin-7(8H)-one]
455	147		CC(C)[C@H](C)n1c(=O)ccc2cnc(N[C@@H](C)c3ccc(OC4CCNCC4)cc3)nc21 [cpd 155, 8-((S)-1,2-Dimethyl-propyl)-2-{(S)-1-[4-(piperidin-4-yloxy)-phenyl]-ethylamino}-8H-pyrido[2,3-d]pyrimidin-7-one]
221	108		CCCC(C)(CO)Cn1c(=O)ccc2cnc(N[C@@H](C)c3ccc(CN4CCC(F)(F)CC4)cc3)nc21 (stereo partly drawn) [cpd 120, 2-{[(1S)-1-{4-[(4,4-difluoropiperidin-1-yl)methyl]phenyl}ethyl]amino}-8-[2-(hydroxymethyl)-2-methylpentyl]pyrido[2,3-d]pyrimidin-7(8H)-one]
218	141	5050	C[C@H](Nc1ncc2ccc(=O)n(CC(C)(C)C)c2n1)c1ccc(-c2ccsc2)cc1 [cpd 133, 8-(2,2-dimethylpropyl)-2-({(1S)-1-[4-(thiophen-3-yl)phenyl]ethyl}amino)pyrido[2,3-d]pyrimidin-7(8H)-one]
211		5050	C[C@H](Nc1ncc2ccc(=O)n(CC(C)(C)CO)c2n1)c1ccc(Br)cc1 [cpd 35, 2-{[(1S)-1-(4-bromophenyl)ethyl]amino}-8-(3-hydroxy-2,2-dimethylpropyl)pyrido[2,3-d]pyrimidin-7(8H)-one]
179	93	7570	CC(C)[C@H](C)n1c(=O)ccc2cnc(N[C@@H](C)c3ccc(-c4ccnc(F)c4)cc3)nc21 [cpd 166, 2-({(1S)-1-[4-(2-fluoropyridin-4-yl)phenyl]ethyl}amino)-8-[(2S)-3-methylbutan-2-yl]pyrido[2,3-d]pyrimidin-7(8H)-one]
163	87	6600	CC(C)[C@H](C)n1c(=O)ccc2cnc(N[C@@H](C)c3ccc(Br)cc3)nc21 [cpd 163, 2-{[(1S)-1-(4-bromophenyl)ethyl]amino}-8-[(2S)-3-methylbutan-2-yl]pyrido[2,3-d]pyrimidin-7(8H)-one]
